Reference: patent US10597388B2, “Pyridazinone herbicides” (FMC CORPORATION, priority 2014, dated 2020)

Key:
Experiment in all cases: Test C greenhouse herbicide test, pre- and postemergence
Type in all cases: in vivo
[1] = tested on: waterhemp (common waterhemp, Amaranthus rudis)
Summary of the method: (§1)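 Visual 0–100 injury score (100 = complete control) taken against untreated controls after 13–15 d in greenhouse. Test chemicals, formulated in solvent plus surfactant, applied preemergence to seeds in loam–sand soil or postemergence to 1- to 4-leaf plants (2–18 cm).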

[2] = tested on: lambsquarters (Chenopodium album)
Summary of the method: as §1

[3] = tested on: blackgrass (Alopecurus myosuroides)
Summary of the method: as §1

corn (Zea mays) = tested on: corn (Zea mays)
Summary of the method: as §1

[4] = tested on: wheat (winter wheat, Triticum aestivum)
Summary of the method: as §1

soybean (Glycine max) = tested on: soybean (Glycine max)
Summary of the method: as §1

[5] = tested on: galium (catchweed bedstraw, Galium aparine)
Summary of the method: as §1

[6] = tested on: nutsedge, yellow (yellow nutsedge, Cyperus esculentus)
Summary of the method: as §1

[7] = tested on: barnyardgrass (Echinochloa crus-galli)
Summary of the method: as §1

[8] = tested on: foxtail, giant (giant foxtail, Setaria faberii); details: Postemergence
Summary of the method: as §1

[9] = tested on: morningglory (Ipomoea coccinea)
Summary of the method: as §1

[10] = tested on: ryegrass, Italian (Italian ryegrass, Lolium multiflorum)
Summary of the method: as §1

[11] = tested on: crabgrass, large (large crabgrass, Digitaria sanguinalis)
Summary of the method: as §1

[12] = tested on: velvetleaf (Abutilon theophrasti)
Summary of the method: as §1

[13] = tested on: pigweed (Amaranthus retroflexus)
Summary of the method: as §1

[14] = Postemergence, 31 g ai/ha, scale 0 to 100 (0 no effect, 100 complete control)
[15] = Postemergence, 125 g ai/ha, scale 0 to 100, 0 is no effect, 100 is complete control
[16] = Postemergence, 250 g ai/ha, scale 0 to 100, 0 no effect, 100 complete control, 13 to 15 d
[17] = Preemergence, 31 g ai/ha, scale 0 to 100, 0 is no effect, 100 is complete control
[18] = Preemergence, 62 g ai/ha, scale 0 to 100, 0 is no effect, 100 is complete control
[19] = Preemergence, 125 g ai/ha, scale 0 to 100, 0 is no effect, 100 is complete control
[20] = Preemergence, 250 g ai/ha, scale 0 to 100, 0 no effect, 100 complete control
[21] = postemergence, 62 g ai/ha, scale 0 to 100, 0 no effect, 100 complete control

CCC(=O)Oc1c(C)nn(C)c(=O)c1-c1ccc(F)c2ccccc12 [Compound 113]
Plant response rating, Waterhemp [1, 14]: 85 | Plant response rating, Waterhemp [1, 15]: 90 | Plant response rating, Waterhemp [1, 16]: 100 | Plant response rating, Waterhemp [1, 17]: 85 | Plant response rating, Waterhemp [1, 18]: 100 | Plant response rating, Waterhemp [1, 19]: 98 | Waterhemp plant response rating [1, 20]: 98 | Plant response rating, Lambsquarters [2, 14]: 98 | Plant response rating, Lambsquarters [2, 15]: 100 | Plant response rating, Lambsquarters [2, 16]: 100 | Plant response rating, Lambsquarters [2, 17]: 90 | Plant response rating, Lambsquarters [2, 18]: 85 | Plant response rating, Lambsquarters [2, 19]: 90 | Lambsquarters plant response rating [2, 20]: 100 | Plant response rating, Blackgrass [3, 14]: 15 | Plant response rating, Blackgrass [3, 15]: 45 | Plant response rating, Blackgrass [3, 16]: 60 | Plant response rating, Blackgrass [3, 17]: 10 | Plant response rating, Blackgrass [3, 18]: 50 | Plant response rating, Blackgrass [3, 19]: 55 | Blackgrass plant response rating [3, 20]: 60 | Blackgrass plant response rating [3, 21]: 25 | Plant response rating, Corn (corn (Zea mays); [14]): 5 | Plant response rating, Corn (corn (Zea mays); [15]): 10 | Plant response rating, Corn (corn (Zea mays); [16]): 15 | Plant response rating, Corn (corn (Zea mays); [17]): 0 | Plant response rating, Corn (corn (Zea mays); [18]): 0 | Plant response rating, Corn (corn (Zea mays); [19]): 20 | Corn plant response rating (corn (Zea mays); [20]): 35 | Corn plant response rating (corn (Zea mays); [21]): 10 | Plant response rating, Wheat [4, 14]: 5 | Plant response rating, Wheat [4, 15]: 5 | Plant response rating, Wheat [4, 16]: 15 | Plant response rating, Wheat [4, 17]: 0 | Plant response rating, Wheat [4, 18]: 30 | Plant response rating, Wheat [4, 19]: 35 | Wheat plant response rating [4, 20]: 50 | Plant response rating, Soybean (soybean (Glycine max); [14]): 15 | Plant response rating, Soybean (soybean (Glycine max); [15]): 40 | Plant response rating, Soybean (soybean (Glycine max); [16]): 55 | Plant response rating, Soybean (soybean (Glycine max); [17]): 0 | Plant response rating, Soybean (soybean (Glycine max); [18]): 45 | Plant response rating, Soybean (soybean (Glycine max); [19]): 65 | Soybean plant response rating (soybean (Glycine max); [20]): 80 | Plant response rating, Galium [5, 14]: 95 | Plant response rating, Galium [5, 15]: 95 | Plant response rating, Galium [5, 16]: 95 | Plant response rating, Galium [5, 17]: 100 | Plant response rating, Galium [5, 18]: 90 | Plant response rating, Galium [5, 19]: 98 | Galium plant response rating [5, 20]: 98 | Plant response rating, Nutsedge, Yellow [6, 14]: 70 | Plant response rating, Nutsedge, Yellow [6, 15]: 85 | Plant response rating, Nutsedge, Yellow [6, 16]: 95 | Plant response rating, Nutsedge, Yellow [6, 17]: 55 | Plant response rating, Nutsedge, Yellow [6, 18]: 70 | Plant response rating, Nutsedge, Yellow [6, 19]: 85 | Nutsedge, Yellow plant response rating [6, 20]: 85 | Plant response rating, Barnyardgrass [7, 14]: 25 | Plant response rating, Barnyardgrass [7, 15]: 35 | Plant response rating, Barnyardgrass [7, 16]: 45 | Plant response rating, Barnyardgrass [7, 17]: 10 | Plant response rating, Barnyardgrass [7, 18]: 35 | Plant response rating, Barnyardgrass [7, 19]: 65 | Barnyardgrass plant response rating [7, 20]: 95 | Barnyardgrass plant response rating [7, 21]: 35 | Plant response rating, Foxtail, Giant ([8]; 31 g ai/ha, scale 0 to 100 (0 no effect, 100 complete control)): 20 | Plant response rating, Foxtail, Giant ([8]; 125 g ai/ha, scale 0 to 100, 0 is no effect, 100 is complete control): 30 | Plant response rating, Foxtail, Giant ([8]; 250 g ai/ha, scale 0 to 100, 0 no effect, 100 complete control, 13 to 15 d): 70 | Plant response rating, Morningglory [9, 14]: 98 | Plant response rating, Morningglory [9, 15]: 100 | Plant response rating, Morningglory [9, 16]: 100 | Plant response rating, Morningglory [9, 17]: 85 | Plant response rating, Morningglory [9, 18]: 95 | Plant response rating, Morningglory [9, 19]: 98 | Morningglory plant response rating [9, 20]: 100 | Plant response rating, Ryegrass, Italian [10, 14]: 90 | Plant response rating, Ryegrass, Italian [10, 15]: 95 | Plant response rating, Ryegrass, Italian [10, 16]: 95 | Plant response rating, Ryegrass, Italian [10, 17]: 95 | Plant response rating, Ryegrass, Italian [10, 18]: 95 | Plant response rating, Ryegrass, Italian [10, 19]: 90 | Ryegrass, Italian plant response rating [10, 20]: 95 | Plant response rating, Crabgrass, Large [11, 14]: 5 | Plant response rating, Crabgrass, Large [11, 15]: 25 | Plant response rating, Crabgrass, Large [11, 16]: 70 | Plant response rating, Crabgrass, Large [11, 17]: 0 | Plant response rating, Crabgrass, Large [11, 18]: 35 | Plant response rating, Crabgrass, Large [11, 19]: 75 | Crabgrass, Large plant response rating [11, 20]: 90 | Crabgrass, Large plant response rating [11, 21]: 15 | Plant response rating, Velvetleaf [12, 14]: 70 | Plant response rating, Velvetleaf [12, 15]: 90 | Plant response rating, Velvetleaf [12, 16]: 98 | Plant response rating, Velvetleaf [12, 17]: 60 | Plant response rating, Velvetleaf [12, 18]: 95 | Plant response rating, Velvetleaf [12, 19]: 98 | Velvetleaf plant response rating [12, 20]: 100 | Plant response rating, Pigweed [13, 14]: 65 | Plant response rating, Pigweed [13, 15]: 95 | Plant response rating, Pigweed [13, 16]: 98 | Plant response rating, Pigweed [13, 17]: 70 | Plant response rating, Pigweed [13, 18]: 75 | Plant response rating, Pigweed [13, 19]: 100 | Pigweed plant response rating [13, 20]: 100
